Source: ChEMBL document CHEMBL1145322, “Synthesis and anthelmintic activity of substituted (R)-phenyllactic acid containing cyclohexadepsipeptides” (Bioorg Med Chem Lett, 2006)

Assays:
[1] = Partition coefficient, log P of the compound; assay type: physicochemical; settings: octanol/water
[2] = tested on: Haemonchus contortus; test: Anthelmintic activity against Haemonchus contortus in infected sheep assessed as reduction in faecal egg at 0.05 mg/kg, po; assay type: functional, Feces; parameters: scale not given: the % may be the effect or the level left
[3] = tested on: Haemonchus contortus; test: Anthelmintic activity against Haemonchus contortus in infected sheep assessed as reduction in faecal egg at 0.10 mg/kg, po; assay type: functional, Feces; parameters: scale not given: the % may be the effect or the level left; settings: dose 0.1 mg/kg
[4] = tested on: Haemonchus contortus; test: Anthelmintic activity against Haemonchus contortus in infected sheep assessed as reduction in faecal egg at 0.25 mg/kg, po; assay type: functional, Feces; parameters: scale not given: the % may be the effect or the level left

Compound | logP [1] | Activity [2] | Activity [3] | Activity [4]
CCC(C)[C@H]1C(=O)O[C@H](C)C(=O)N(C)[C@@H](C)C(=O)O[C@H](C)C(=O)N(C)[C@@H](C(C)CC)C(=O)O[C@H](C)C(=O)N1C (stereo partly drawn) | 3.26 | >=95% |  | 
CC[C@@H](C)[C@H]1C(=O)O[C@H](Cc2ccc(N3CCOCC3)cc2)C(=O)N(C)[C@@H]([C@H](C)CC)C(=O)O[C@H](C)C(=O)N(C)[C@@H](C)C(=O)O[C@H](C)C(=O)N1C | 3.58 |  | >=95% | 
CC[C@@H](C)[C@H]1C(=O)O[C@H](Cc2ccccc2)C(=O)N(C)[C@@H]([C@H](C)CC)C(=O)O[C@H](C)C(=O)N(C)[C@@H](C)C(=O)O[C@H](C)C(=O)N1C | 4.23 |  |  | <=50%
CC[C@@H](C)[C@H]1C(=O)O[C@H](Cc2ccc([N+](=O)[O-])cc2)C(=O)N(C)[C@@H]([C@H](C)CC)C(=O)O[C@H](C)C(=O)N(C)[C@@H](C)C(=O)O[C@H](C)C(=O)N1C |  |  | 50% | 

More lines, main results first:

logP [1] | Compound | Activity [2] | Activity [3] | Activity [4]
3.18 | CC[C@@H](C)[C@H]1C(=O)O[C@H](Cc2ccccc2N)C(=O)N(C)[C@@H]([C@H](C)CC)C(=O)O[C@H](C)C(=O)N(C)[C@@H](C)C(=O)O[C@H](C)C(=O)N1C | >=95% |  | 
2.35 | CC[C@@H](C)[C@H]1C(=O)O[C@H](Cc2cccc(N)c2)C(=O)N(C)[C@@H]([C@H](C)CC)C(=O)O[C@H](C)C(=O)N(C)[C@@H](C)C(=O)O[C@H](C)C(=O)N1C | >=95% |  | 
2.08 | CC[C@@H](C)[C@H]1C(=O)O[C@H](Cc2ccc(N)cc2)C(=O)N(C)[C@@H]([C@H](C)CC)C(=O)O[C@H](C)C(=O)N(C)[C@@H](C)C(=O)O[C@H](C)C(=O)N1C |  | 50% | 
